Source: patent US5559128A, “3-substituted piperidines promote release of growth hormone” (Merck & Co., Inc., priority 1995, dated 1996)

Assay: Log P
Conditions: Log P (min), Table I

Row | Compound | chromatographic logP
1 | CC(C)(N)C(=O)N[C@H](Cc1c[nH]c2ccccc12)C(=O)N1CCCC(N(c2ccccc2)S(=O)(=O)c2ccccc2)C1 (single isomer, unassigned) [3b] | 3.2
2 | CC(C)(N)C(=O)N[C@H](Cc1c[nH]c2ccccc12)C(=O)N1CCCC(N(Cc2ccccc2)S(=O)(=O)c2ccccc2)C1 (some centres unmarked) [3a] | 3.6
